Here are results for one sequence from patent US20220233652A1, “Pharmaceutical Compositions Comprising Integration-Promoting Peptides” (priority 2018, published 2022).

For series [1], the system named is 1975 human lung cancer cells. Kind of series: Lung cancer tumor mice model. The series is classed as in vivo, athymic nude mice. The note with it: for Inhibition of growth of lung cancer tumors relative to control: day 11. Here is the method:
(§1) Two models of cancer were generated: lung cancer and pancreatic cancer. About 5×10^6 of 1975 human lung cancer cells per 0.1 ml PBS per mouse were injected to male 7 weeks old athymic nude mice (n=30). The cells were injected, subcutaneously at one site on the back of the mice. About 5×10^6 PANC-1 human pancreatic cancer cells per 0.1 ml PBS per mouse were injected to male 7 weeks old athymic nude mice (n=22). The cells were injected, subcutaneously at one site on the back of the mice. When tumors were palpable (˜0.3-0.5 cm^3), the mice were randomly divided into three groups (Table 27) and the viruses and/or peptides were injected, twice a week for two weeks.
(§2) The first day of the study was defined as ‘Day 1’. The animals were administrated IP with either Vehicle (PBS or Formulation), lentiviral particles and SC with test items according to Table 27 on days 1, 4, 8 and 11. Body weight and tumor volume were checked on days 3, 7, 11, 14 and 17 (the latter was measured with a caliper). At the end of the experiment, on day 17, the mice were anesthetized and then sacrificed, and the tumors were removed, as well as lung, spleen, kidney and liver.

The subject of series [2] is PANC-1 human pancreatic cancer cells. Kind of series: Pancreatic cancer tumor mice model. The note with it: day 17. The series is classed as in vivo, athymic nude mice. The procedure: as §1, §2
The nature of series [3]: Phase I/IIa clinical trial: safety and tolerability. The series is classed as in vivo, human. The note with it: HIV patients, 5 weeks SC administration. The source says: Patients are monitored for adverse events (AE) of the INS peptide such as rash, acute allergic reaction, bronchospasm, respiratory distress, and acute vascular leak syndrome. If a severe administration related reaction occurs, the drug administration is stopped. Blood chemistry, hematology, coagulation, and urinalysis are repeated on Days 1, 4, 8, 11, 15, 18, 22, 25 at the clinic visits.
The primary safety endpoint is the frequency, severity, and duration of side effects. Number of participants with treatment-related adverse events as assessed by CTCAE v4.03, are evaluated though study completion. Main adverse events evaluation is based on DADS Toxicity criteria (Division of AIDS DADS Table for Grading the Severity of Adult and Paediatric Adverse Events, Corrected Version 2.1): • Viral load • Lymphopenia/Neutropenia • Immuno-reaction over reaction/cytokine storm • Infection surrounding the administration site • Liver function (lab tests) • Kidney function (lab tests)
Incidence of withdrawal (drop-out rate) due to side effects is evaluated throughout the study.

Series [4] deals with HIV-1. Here is the method:
This is a phase I/IIa pilot—Proof of Concept, dose escalation study.
Three cohorts of 3-6 patients (per cohort) received twice a week the Multiple Ascending Doses (MAD*) for up to 8 weeks to evaluate safety, clinical dose and preliminary efficacy for a duration of up to 6 weeks. Interim analysis was performed to decide on the safety of the low dose and continue to a higher dose SC administration. Study Duration: 1 year including screening, treatment and post treatment follow up
Cohort 1: Three to six (3-6) patients, each one received twice a week the decided MAD* for up to 8 weeks (up to 16 doses per patient). Subcutaneous dose: LOW; 0.05, mg/kg, with escalation to 0.2 mg/kg body weight at week 2-4. Cohort 2: Three to six (3-6) patients, each one received twice a week the decided MAD* for up to 8 weeks (up to 16 doses per patient). Subcutaneous dose: MEDIUM; 0.1 mg/kg, with escalation to 0.3 mg/kg body weight at week 2-4. Cohort 3: Three to six (3-6) patients, each one received twice a week the decided MAD* for up to 8 weeks (up to 16 doses per patient). Subcutaneous dose: HIGH; 0.2 mg/kg, with escalation to 0.4 mg/kg body weight at week 2-4. Interim analysis was performed to decide on the safety of all cohorts' doses and continue to a higher dose, up to 0.2 mg/kg for Cohort 1, up to 0.3 mg/kg for Cohort 2 and up to 0.4 mg/kg for Cohort 3, SC administration.
Effectiveness of Gammora assessed by reduced Viral load (by 0.5 LOG; Viral Suppression). • 1. Mean Change in CD4+ Cell Count as a Measure of Efficacy and Safety. • 2. Reduced viral protein p24 antigen. • 3. Functional Assessment of HIV Infection (FAHI) questionnaire.

[5] abbreviates: 5 weeks INS 0.2-0.4 mg/kg SC twice a week + lopinavir 800 mg plus ritonavir 200 mg daily.

Where two headings read alike, the source gives them in different places.

Consider WTAVQMAVFIHNFKRK [INS], for which the “Inhibition of growth of lung cancer tumors relative to control” value in series [1] (lentiviral particles IP + INS peptide 1.25 mg/kg SC on days 1, 4, 8, 11) stood at 50%; in series [1] (lentiviral particles IP + INS peptide 2.5 mg/kg SC on days 1, 4, 8, 11), 50%. Moreover, the “Comparison of doses at the end of the experiment” value in series [1] (day 17, INS 1.25 mg/kg versus 2.5 mg/kg, with lentiviral particles) is reported as “better results than with INS 2.5 mg/kg”. Moreover, the “Reduction of weight of tumors relative to control” value is 25% in series [2] (lentiviral particles + INS 1.25 mg/kg SC) and 50% in series [2] (lentiviral particles + INS 2.5 mg/kg SC). Also, in series [3], the “Side effects and harm to immune system (monitored by CD4 cells)” value is “no side effects and no harm to immune system”. The “HIV-1 RNA count” value in series [4] (setting [5]) is on record as “below 300 copies/mL”. Also, the “Reduction in viral load from baseline” value is “up to 99%” in series [4] (setting [5]) and “up to 90%” in series [4] (most patients, first 5 weeks of SC administration, INS alone).
